Test results published in PMC7395068, “The evolution of strategies to minimise the risk of human drug-induced liver injury (DILI) in drug discovery and development” (Archives of Toxicology, 2020).
Like-named read-outs stand apart in the source and are kept apart here.

Legend:
HepG2 cells [1] = settings: cited from earlier work; for Structural based (HCI): In vitro Assay, ref O'Brien 2006
HepG2 cells [2] = settings: cited from earlier work
human hepatocytes = settings: cited from earlier work; for Structural based (HCI): In vitro Assay, ref Xu 2008
[3] = cited from earlier work
[4] = test system: THLE-Null and THLE-3A4 cells; settings: In vitro Assay; ref Gustafsson 2014; cited from earlier work
[5] = test system: HepG2 cells, primary human hepatocytes; settings: In vitro Assay; ref Garside 2014; cited from earlier work
Upcyte human hepatocytes = settings: In vitro Assay; ref Tolosa 2019; cited from earlier work
rBsep = settings: In vitro Assay; ref Dawson 2012; cited from earlier work
[6] = Plasma free fraction (fu) and unbound Cmax (Cmax,u); assay type: in vitro ADME, human; settings: unbound plasma Cmax
Method: The prediction of DILI severity was evaluated further using the 3D combined HCI assays using plasma-free fraction. The majority of fu values were obtained from literature, when unavailable in-house prediction was utilised. Unbound plasma Cmax concentrations (Cmax,u) were derived by multiplying total plasma Cmax with the corresponding free fraction (fu) for each compound.

[7] = cited from earlier work; remark: listed apart in the source
HepG2 cells [8] = settings: cited from earlier work; remark: listed apart in the source
[9] = test system: THLE or HepG2 cells, isolated mitochondria, BSEP; settings: cited from earlier work
PHH = settings: cited from earlier work
hLiMTs [10] = settings: cited from earlier work
[11] = read-out: Human plasma Cmax; total plasma Cmax.tot, median of 9 literature references; cited from earlier work
[12] = plasma free fraction; cited from earlier work
[13] = test system: isolated mouse liver mitochondria; settings: In vitro Assay; ref Porceddu 2012; cited from earlier work
hLiMTs [14] = assay: Combined HCI (HCS) and cellular ATP 3D assay in hLiMTs
HepaRG spheroids = assay: Combined HCI (HCS) and cellular ATP 3D assay in HepaRG spheroids
[15] = In vitro Assay, ref Persson 2013
[16] = Modeled in vitro assays (cytotoxicity, mitochondrial dysfunction, BSEP), ref Aleo et al. 2019
[17] = In vitro Assay, ref Proctor 2017
[18] = Microtissue model structural based (HCI), combined HCS and ATP, MEC < 25 × Cmax.tot cut-off

## CN1CCC(=C2c3ccccc3CC(=O)c3sccc32)CC1 [ketotifen, reference compound]
HepG2 cells [1]
  Structural based (HCI): -VE
HepG2 cells [2]; In vitro Assay, ref Tolosa 2012
  Structural based (HCI): +VE
HepG2 cells [2]; Structural based (HCI), HepG2, ref Tolosa et al. 2012
  DILI in vitro assay prediction, Tolosa (2012): false-positive
Human hepatocytes
  Structural based (HCI): -VE
[3]; ref Dawson 2012
  In vivo DILI: -VE
[3]; ref Garside 2014
  In vivo DILI: +VE
[3]; ref Gustafsson 2014
  In vivo DILI: +VE
[3]; ref O'Brien 2006
  In vivo DILI: -VE
[3]; ref Tolosa 2012
  In vivo DILI: -VE
[3]; ref Tolosa 2019
  In vivo DILI: +VE
[3]; ref Xu 2008
  In vivo DILI: -VE
[4]
  THLE-Null: -VE
  THLE-Null/3A4: -VE
[5]
  Cluster 1-6 +VE Assay: +VE
Upcyte human hepatocytes
  Upcytes multi donor assay 14day data: +VE
rBsep
  Inhibition of rBsep cutoff<1& cmax u>.2: -VE
  Inhibition of rBsep cutoff<3: -VE

## [H]/N=C(/N)N[C@H]1[C@H](O)[C@@H](O)[C@H](O[C@@H]2O[C@@H](C)[C@](O)(C=O)[C@H]2O[C@@H]2O[C@@H](CO)[C@H](O)[C@@H](O)[C@@H]2NC)[C@@H](N/C(N)=N\[H])[C@@H]1O [streptomycin, reference compound]
[6]
  Human plasma Cmax,u: 41.912 µM
[7]; LTKB DILIrank category, ref Chen et al. 2016
  DILI severity category (Chen et al. [2016]): No
[7]; human DILI classification, LTKB DILIrank, ref Chen et al. 2016
  DILI severity category (Chen 2016): No
[7]; human DILI severity, ref Chen et al.
  DILI severity category: No
[7]; ref Chen 2016
  DILI +VE (5-8), DILI -VE (-4): -VE
  DILI severity category: vNo-DILI-Concern
HepG2 cells [1]
  Structural based (HCI): +VE
HepG2 cells [1]; Structural based (HCI), HepG2, ref O'Brien et al. 2006
  DILI in vitro assay prediction, O'Brien (2006): +VE (lowest HCI endpoint IC50 (or in the absence of dose–response < 100 µM) < 30 × total human plasma exposure levels (Cmax.tot))
HepG2 cells [8]; [15]
  Cluser analysis: -VE
  Structural based (HCI): -VE
HepG2 cells [8]; Structural based (HCI), HepG2, ref Persson et al. 2013
  DILI in vitro assay prediction, Persson (2013): -VE
Human hepatocytes
  Structural based (HCI): -VE
Human hepatocytes; Structural based (HCI), human hepatocytes, ref Xu et al. 2008
  DILI in vitro assay prediction, Xu (2008): -VE
[9]; In vitro Assay, ref Aleo 2019
  Partition Hybrid HRM Score: -VE
  Ro2 Hybrid HRM Score: -VE
[9]; [16]
  Partition Hybrid HRM Score ≥4, Aleo (2019): -VE
  Partition Hybrid HRM Score ≥8, Aleo (2019): -VE
  Rule of Two hybrid HRM Score ≥3, Aleo (2019): -VE
  Rule of Two hybrid HRM Score ≥8, Aleo (2019): -VE
PHH; 2D PHH, ATP, IC50 < 100 × Cmax.tot, ref Proctor et al. 2017
  PHH/100xCmax, Proctor (2017): -VE
PHH; 2D PHH, ATP, IC50 threshold 100 µM, ref Proctor et al. 2017
  PHH/100uM, Proctor (2017): -VE
PHH; [17]
  PHH ATP <100uM: -VE
hLiMTs [10]; [17]
  hLiMTs ATP <100uM: -VE
hLiMTs [10]; hLiMTs, ATP, IC50 < 100 × Cmax.tot, ref Proctor et al. 2017
  hLiMTs/100xCmax, Proctor (2017): -VE
hLiMTs [10]; hLiMTs, ATP, IC50 threshold 100 µM, ref Proctor et al. 2017
  hLiMTs/100uM, Proctor (2017): -VE
[11]
  Cmax: 64.5 µM
[12]
  fu: 0.650
[3]; Chen et al. 2016 or literature alignment, ref Chen et al. 2016
  Assigned DILI category: 1
[3]; ref Aleo 2019
  In vivo DILI: -VE
[3]; ref Dawson 2012
  In vivo DILI: -VE
[3]; ref Garside 2014
  In vivo DILI: -VE
[3]; ref Gustafsson 2014
  In vivo DILI: -VE
[3]; ref O'Brien 2006
  In vivo DILI: -VE
[3]; ref Persson 2013
  In vivo DILI: -VE
[3]; ref Porceddu 2012
  In vivo DILI: +VE
[3]; ref Proctor 2017
  In vivo DILI: -VE
[3]; ref Tolosa 2019
  In vivo DILI: -VE
[3]; ref Xu 2008
  In vivo DILI: -VE
[4]
  THLE-Null: -VE
  THLE-Null/3A4: -VE
[5]
  Cluster 1-6 +VE Assay: -VE
[13]
  in vitro data EC2<=1x Cmax: +VE
  in vitro data EC20<=2uM: -VE
Upcyte human hepatocytes
  Upcytes multi donor assay 14day data: -VE
rBsep
  Inhibition of rBsep cutoff<1& cmax u>.2: -VE
  Inhibition of rBsep cutoff<3: -VE
hLiMTs [14]; Homo sapiens, read-out: ATP endpoint AC50
  AC50: 1960 µM
hLiMTs [14]; Homo sapiens, read-out: ATP endpoint MEC
  minimal effective concentration: 1700 µM
hLiMTs [14]; [18]
  DILI prediction hLiMTs (HCS-MEC): -VE
hLiMTs [14]; hLiMTs, ATP endpoint, cut-off <25x Avg Cmax
  hLiMTs <25x Avg Cmax ATP: -ve
hLiMTs [14]; hLiMTs, ATP endpoint, cut-off <100x Avg Cmaxu
  hLiMTs <100x Avg Cmaxu ATP: +ve (<100x Avg Cmaxu)
hLiMTs [14]; hLiMTs, HCS endpoints, cut-off <25x Avg Cmax
  hLiMTs <25x Avg Cmax HCS: -ve
hLiMTs [14]; hLiMTs, HCS endpoints, cut-off <100x Avg Cmaxu
  hLiMTs <100x Avg Cmaxu HCS: -ve
hLiMTs [14]; hLiMTs, all endpoints (ATP and HCS), cut-off <25x Avg Cmax
  hLiMTs <25x Avg Cmax All: -ve
hLiMTs [14]; hLiMTs, all endpoints, Cmax max used
  hLiMTs Cmax max All: -ve
hLiMTs [14]; hLiMTs, all endpoints, Cmax min used
  hLiMTs Cmax min All: -ve
hLiMTs [14]; hLiMTs, all endpoints, cut-off <10 uM
  hLiMTs <10 uM All: -ve
hLiMTs [14]; hLiMTs, all endpoints, cut-off <100x Avg Cmaxu
  hLiMTs <100x Avg Cmaxu All: +ve (<100x Avg Cmaxu)
HepaRG spheroids; HepaRG, ATP endpoint, cut-off <25x Avg Cmax
  HepaRG <25x Avg Cmax ATP: -ve
HepaRG spheroids; HepaRG, ATP endpoint, cut-off <100x Avg Cmaxu
  HepaRG <100x Avg Cmaxu ATP: +ve (<100x Avg Cmaxu)
HepaRG spheroids; HepaRG, HCS endpoints, cut-off <25x Avg Cmax
  HepaRG <25x Avg Cmax HCS: -ve
HepaRG spheroids; HepaRG, HCS endpoints, cut-off <100x Avg Cmaxu
  HepaRG <100x Avg Cmaxu HCS: +ve (<100x Avg Cmaxu)
HepaRG spheroids; HepaRG, all endpoints (ATP and HCS), cut-off <25x Avg Cmax
  HepaRG <25x Avg Cmax All: -ve
HepaRG spheroids; HepaRG, all endpoints, Cmax max used
  HepaRG Cmax max All: -ve
HepaRG spheroids; HepaRG, all endpoints, Cmax min used
  HepaRG Cmax min All: -ve
HepaRG spheroids; HepaRG, all endpoints, cut-off <10 uM
  HepaRG <10 uM All: -ve
HepaRG spheroids; HepaRG, all endpoints, cut-off <100x Avg Cmaxu
  HepaRG <100x Avg Cmaxu All: +ve (<100x Avg Cmaxu)
HepaRG spheroids; Homo sapiens, HepaRG, read-out: ATP endpoint AC50
  AC50: 3650 µM
HepaRG spheroids; Homo sapiens, HepaRG, read-out: ATP endpoint MEC
  minimal effective concentration: 2830 µM
HepaRG spheroids; Homo sapiens, HepaRG, read-out: HCS endpoint MEC
  minimal effective concentration: 3140 µM
HepaRG spheroids; [18]
  DILI prediction HepaRG spheroids (HCS-MEC): -VE
